# Source: patent US8541365B2, “Dendrimeric compounds comprising amino acids, hyperbranched core compound, process for preparation of dendrimeric compounds comprising amino acids and hyperbranched core compound, and use thereof” (Instytut Chemii Organicznej, Polska Akademia Nauk, priority 2008, dated 2013)
# Read-outs that look alike come from different tables or passages of the source.
# Key:
# E. coli ATTC 25922 = type: cell-based, Escherichia coli
# Experimental: (§1) Titration plates with a, b, d strains were incubated for 18 h at 35° C. under aerobic conditions, and the c strain was incubated for 18 h at 33° C. under aerobic conditions.
# d) Escherichia coli ATCC 25922
# S. aureus ATCC 25923 = type: cell-based, Staphylococus aureus subsp. aureus
# Experimental: as §1
# b) Staphylococus aureus subsp. aureus ATCC 25923,
# S. aureus ATTC 43300 = type: cell-based, Staphylococus aureus subsp. aureus
# Experimental: as §1
# c) Staphylococus aureus subsp. aureus ATCC 43300,
# P. aeruginosa ATTC 27853 = type: cell-based, Pseudomonas aeruginosa
# Experimental: as §1
# a) Pseudomonas aeruginosa ATCC 27853,
# [1] = system: human melanoma cells (MEW 155); details: MEW 155 cells, 3 days culture
# Experimental: Human melanoma cells (MEW 155) received from Institute of Oncology were inoculated on Petri dishes (Ø3 cm, Nunc) to the number of about 75 000, suspended in 3 ml of Eagle medium+10% FBS+antibiotics. Immediately after the inoculation, solutions of tested substances were added to the cells (a substance +20 ml PBS) at 0.5 ml per dish. After culturing for 3 days, numbers of cells (all, dead and alive) at each dish were determined with NucleoCounter apparatus (Chemometec).
# [2] = E. coli ATTC 25922, microdilution in CAMHB, 18 h at 35° C.
# [3] = S. aureus ATCC 25923, microdilution in CAMHB, 18 h at 35° C.
# [4] = S. aureus ATTC 43300, microdilution in CAMHB, 18 h at 33° C.
# [5] = P. aeruginosa ATTC 27853, microdilution in CAMHB, 18 h at 35° C.
Compound,Minimal inhibitory concentration (MIC) (E. coli ATTC 25922; [2]) [μM/L],Minimal inhibitory concentration (MIC) (S. aureus ATCC 25923; [3]) [μM/L],Minimal inhibitory concentration (MIC) (S. aureus ATTC 43300; [4]) [μM/L],Minimal inhibitory concentration (MIC) (P. aeruginosa ATTC 27853; [5]) [μM/L],also measured
N[C@@H](CCCCNC(=O)OCc1ccccc1Cl)C(=O)NCCNC(=O)CCN(CCC[C@@H](C(=O)NCCc1c[nH]c2ccccc12)N(CCC(=O)NCCNC(=O)[C@@H](N)CCCCNC(=O)OCc1ccccc1Cl)CCC(=O)NCCNC(=O)[C@@H](N)CCCCNC(=O)OCc1ccccc1Cl)CCC(=O)NCCNC(=O)[C@@H](N)CCCCNC(=O)OCc1ccccc1Cl [Compound 97],7.9,0.93,20.4,60,
N[C@@H](CCCCNC(=O)OCc1ccccc1Cl)C(=O)NCCNC(=O)CCN(CCC(=O)NCCNC(=O)[C@@H](N)CCCCNC(=O)OCc1ccccc1Cl)C[C@@H](C(=O)NCCc1c[nH]c2ccccc12)N(CCC(=O)NCCNC(=O)[C@@H](N)CCCCNC(=O)OCc1ccccc1Cl)CCC(=O)NCCNC(=O)[C@@H](N)CCCCNC(=O)OCc1ccccc1Cl [Compound 99],7.0,0.6,3.32,52,
N[C@@H](CCCCNC(=O)OCc1ccccc1Cl)C(=O)NCCNC(=O)CCN(CCCC[C@@H](C(=O)NCCc1c[nH]c2ccccc12)N(CCC(=O)NCCNC(=O)[C@@H](N)CCCCNC(=O)OCc1ccccc1Cl)CCC(=O)NCCNC(=O)[C@@H](N)CCCCNC(=O)OCc1ccccc1Cl)CCC(=O)NCCNC(=O)[C@@H](N)CCCCNC(=O)OCc1ccccc1Cl [Compound 101],12.0,0.93,10.0,51,
N[C@@H](CCCCNC(=O)OCc1ccccc1Cl)C(=O)NCCNC(=O)CCN(CCC[C@@H](C(=O)NCCc1c[nH]cn1)N(CCC(=O)NCCNC(=O)[C@@H](N)CCCCNC(=O)OCc1ccccc1Cl)CCC(=O)NCCNC(=O)[C@@H](N)CCCCNC(=O)OCc1ccccc1Cl)CCC(=O)NCCNC(=O)[C@@H](N)CCCCNC(=O)OCc1ccccc1Cl [Compound 108],,,,,Live cells (%) ([1]; concentration 42.1 μMol dm^−3): 94.9%
N[C@@H](CCCCNC(=O)OCc1ccccc1Cl)C(=O)NCCNC(=O)CCN(CCCC(C(=O)Nc1cccnc1)N(CCC(=O)NCCNC(=O)[C@@H](N)CCCCNC(=O)OCc1ccccc1Cl)CCC(=O)NCCNC(=O)[C@@H](N)CCCCNC(=O)OCc1ccccc1Cl)CCC(=O)NCCNC(=O)[C@@H](N)CCCCNC(=O)OCc1ccccc1Cl (stereo partly drawn) [Compound 92],,,,,Live cells (%) ([1]; concentration 7.14 μMol dm^−3): 97.7%
NCCCC[C@H](NC(=O)OCc1ccccc1Cl)C(=O)NCCNC(=O)CCN(CCCC(C(=O)Nc1cccnc1)N(CCC(=O)NCCNC(=O)[C@H](CCCCN)NC(=O)OCc1ccccc1Cl)CCC(=O)NCCNC(=O)[C@H](CCCCN)NC(=O)OCc1ccccc1Cl)CCC(=O)NCCNC(=O)[C@H](CCCCN)NC(=O)OCc1ccccc1Cl (stereo partly drawn) [Compound 93],,,,,Live cells (%) ([1]; concentration 13.65 μMol dm^−3): 95.8%
N[C@@H](CCCCNC(=O)OCc1ccccc1Cl)C(=O)NCCNC(=O)CCN(CCC(=O)NCCNC(=O)[C@@H](N)CCCCNC(=O)OCc1ccccc1Cl)CC[C@@H](C(=O)NCCc1c[nH]c2ccccc12)N(CCC(=O)NCCNC(=O)[C@@H](N)CCCCNC(=O)OCc1ccccc1Cl)CCC(=O)NCCNC(=O)[C@@H](N)CCCCNC(=O)OCc1ccccc1Cl [Compound 95],32,1.88,32,51,
NCCCC[C@H](NC(=O)OCc1ccccc1Cl)C(=O)NCCNC(=O)CCN(CCCC[C@@H](C(=O)NCCc1c[nH]c2ccccc12)N(CCC(=O)NCCNC(=O)[C@H](CCCCN)NC(=O)OCc1ccccc1Cl)CCC(=O)NCCNC(=O)[C@H](CCCCN)NC(=O)OCc1ccccc1Cl)CCC(=O)NCCNC(=O)[C@H](CCCCN)NC(=O)OCc1ccccc1Cl [Compound 100],3.71,0.93,5.81,41,Live cells (%) ([1]; concentration 25.7 μMol dm^−3): 0%
NCCC[C@H](NC(=O)OCc1ccccc1Cl)C(=O)NCCNC(=O)CCN(CCCC[C@@H](C(=O)NCCc1c[nH]c2ccccc12)N(CCC(=O)NCCNC(=O)[C@H](CCCN)NC(=O)OCc1ccccc1Cl)CCC(=O)NCCNC(=O)[C@H](CCCN)NC(=O)OCc1ccccc1Cl)CCC(=O)NCCNC(=O)[C@H](CCCN)NC(=O)OCc1ccccc1Cl [Compound 106],16.7,3.82,25,71,Live cells (%) ([1]; concentration 10.0 μMol dm^−3): 87.7%
NCCCC[C@H](NC(=O)OCc1ccccc1Cl)C(=O)NCCNC(=O)CCN(CCC(=O)NCCNC(=O)[C@H](CCCCN)NC(=O)OCc1ccccc1Cl)C[C@@H](C(=O)NCCc1c[nH]c2ccccc12)N(CCC(=O)NCCNC(=O)[C@H](CCCCN)NC(=O)OCc1ccccc1Cl)CCC(=O)NCCNC(=O)[C@H](CCCCN)NC(=O)OCc1ccccc1Cl [Compound 98],12.3,0.95,8.06,52,Live cells (%) ([1]; concentration 4.3 μMol dm^−3): 97.7%
NCCCC[C@H](NC(=O)OCc1ccccc1Cl)C(=O)NCCNC(=O)CCN(CCC(=O)NCCNC(=O)[C@H](CCCCN)NC(=O)OCc1ccccc1Cl)CC[C@@H](C(=O)NCCc1c[nH]c2ccccc12)N(CCC(=O)NCCNC(=O)[C@H](CCCCN)NC(=O)OCc1ccccc1Cl)CCC(=O)NCCNC(=O)[C@H](CCCCN)NC(=O)OCc1ccccc1Cl [Compound 94],12.2,0.94,10.12,70,Live cells (%) ([1]; concentration 12.13 μMol dm^−3): 88.4%
N[C@@H](CCCCNC(=O)OCc1ccccc1)C(=O)NCCNC(=O)CCN(CCCC[C@@H](C(=O)NCCc1c[nH]c2ccccc12)N(CCC(=O)NCCNC(=O)[C@@H](N)CCCCNC(=O)OCc1ccccc1)CCC(=O)NCCNC(=O)[C@@H](N)CCCCNC(=O)OCc1ccccc1)CCC(=O)NCCNC(=O)[C@@H](N)CCCCNC(=O)OCc1ccccc1 [Compound 103],111,12.9,74,149,Live cells (%) ([1]; concentration 15.0 μMol dm^−3): 96.5%
NCCCC[C@H](NC(=O)OCc1ccccc1Cl)C(=O)NCCNC(=O)CCN(CCC[C@@H](C(=O)NCCc1c[nH]cn1)N(CCC(=O)NCCNC(=O)[C@H](CCCCN)NC(=O)OCc1ccccc1Cl)CCC(=O)NCCNC(=O)[C@H](CCCCN)NC(=O)OCc1ccccc1Cl)CCC(=O)NCCNC(=O)[C@H](CCCCN)NC(=O)OCc1ccccc1Cl [Compound 107],,,,,Live cells (%) ([1]; concentration 47.1 μMol dm^−3): 91.1%
NCCCC[C@H](NC(=O)OCc1ccccc1)C(=O)NCCNC(=O)CCN(CCCC[C@@H](C(=O)NCCc1c[nH]c2ccccc12)N(CCC(=O)NCCNC(=O)[C@H](CCCCN)NC(=O)OCc1ccccc1)CCC(=O)NCCNC(=O)[C@H](CCCCN)NC(=O)OCc1ccccc1)CCC(=O)NCCNC(=O)[C@H](CCCCN)NC(=O)OCc1ccccc1 [Compound 102],,,,,"Live cells (%) ([1]; concentration 13.6 μMol dm^−3): 98.5%; Minimal inhibitory concentration (MIC) (E. coli ATTC 25922; ATTC 25922, 18 h): 149 μM/L; Minimal inhibitory concentration (MIC) (S. aureus ATCC 25923; ATCC 25923, 18 h): 17.3 μM/L; Minimal inhibitory concentration (MIC) (S. aureus ATTC 43300; ATTC 43300, 18 h): 149 μM/L; Minimal inhibitory concentration (MIC) (P. aeruginosa ATTC 27853; ATTC 27853, 18 h): 149 μM/L"
NCCCC[C@H](NC(=O)OCc1ccccc1Br)C(=O)NCCNC(=O)CCN(CCCC[C@@H](C(=O)NCCc1c[nH]c2ccccc12)N(CCC(=O)NCCNC(=O)[C@H](CCCCN)NC(=O)OCc1ccccc1Br)CCC(=O)NCCNC(=O)[C@H](CCCCN)NC(=O)OCc1ccccc1Br)CCC(=O)NCCNC(=O)[C@H](CCCCN)NC(=O)OCc1ccccc1Br [Compound 104],30,3.43,30,64,Live cells (%) ([1]; concentration 21.4 μMol dm^−3): 73.6%
NCCCC[C@H](NC(=O)OCc1ccccc1Cl)C(=O)NCCNC(=O)CCN(CCC[C@@H](C(=O)NCCc1c[nH]c2ccccc12)N(CCC(=O)NCCNC(=O)[C@H](CCCCN)NC(=O)OCc1ccccc1Cl)CCC(=O)NCCNC(=O)[C@H](CCCCN)NC(=O)OCc1ccccc1Cl)CCC(=O)NCCNC(=O)[C@H](CCCCN)NC(=O)OCc1ccccc1Cl [Compound 96],12.1,1.87,12.1,51,Live cells (%) ([1]; concentration 33.6 μMol dm^−3): 11.6%
